Tested on: MV-4-11 cells
Assay: Gene expression microarray analysis (Affymetrix PrimeView) and GSEA
Format: cell-based, human
Parameters: RFU PODN (11730768_x_at) / Fold change /veh PODN (11730768_x_at) / RFU LINC00158 (11744669_a_at) / Fold change /veh LINC00158 (11744669_a_at) / RFU DUSP10 (11751237_a_at) / Fold change /veh DUSP10 (11751237_a_at) / RFU ID3 (11757404_x_at) / Fold change /veh ID3 (11757404_x_at) / RFU PLEKHG5 (11737974_s_at) / Fold change /veh PLEKHG5 (11737974_s_at) / RFU LRRC4B (11730491_at) / Fold change /veh LRRC4B (11730491_at) / RFU GIMAP4 (11747438_a_at) / Fold change /veh GIMAP4 (11747438_a_at) / RFU KRT8 (11758183_x_at) / Fold change /veh KRT8 (11758183_x_at) / RFU CNN1 (11734310_a_at) / Fold change /veh CNN1 (11734310_a_at) / RFU VPS37D (11726825_at) / Fold change /veh VPS37D (11726825_at) / RFU C10orf10 (11716522_x_at) / Fold change /veh C10orf10 (11716522_x_at) / RFU KIR2DL2 /// KIR2DL4 /// KIR2DL5A /// KIR2DL5B /// KIR2DS1 /// KIR2DS2 /// KIR2DS3 /// KIR2DS4 /// KIR3DL3 /// KIR3DL3 /// KIR3DS1 (11738374_at) / Fold change /veh KIR2DL2 /// KIR2DL4 /// KIR2DL5A /// KIR2DL5B /// KIR2DS1 /// KIR2DS2 /// KIR2DS3 /// KIR2DS4 /// KIR3DL3 /// KIR3DL3 /// KIR3DS1 (11738374_at) / RFU C1QL1 (11718748_at) / Fold change /veh C1QL1 (11718748_at) / RFU TMPRSS4 (11747572_a_at) / Fold change /veh TMPRSS4 (11747572_a_at) / RFU HAMP (11756126_x_at) / Fold change /veh HAMP (11756126_x_at) / RFU RNFT2 (11725882_a_at) / Fold change /veh RNFT2 (11725882_a_at) / RFU NR4A2 (11747474_a_at) / Fold change /veh NR4A2 (11747474_a_at) / RFU ABCC12 (11746883_a_at) / Fold change /veh ABCC12 (11746883_a_at) / RFU TMEM136 (11760407_x_at) / Fold change /veh TMEM136 (11760407_x_at) / RFU CLDN22 /// WWC2 (11732394_at) / Fold change /veh CLDN22 /// WWC2 (11732394_at) / RFU HLA-DPB1 (11760878_x_at) / Fold change /veh HLA-DPB1 (11760878_x_at) / RFU SPINT1 (11716480_a_at) / Fold change /veh SPINT1 (11716480_a_at) / RFU GAP43 (11754022_s_at) / Fold change /veh GAP43 (11754022_s_at) / RFU A4GNT (11735810_at) / Fold change /veh A4GNT (11735810_at) / RFU PRB3 (11715151_x_at) / Fold change /veh PRB3 (11715151_x_at) / RFU TUBB4B (11761932_at) / Fold change /veh TUBB4B (11761932_at) / RFU CAPN14 (11732068_a_at) / Fold change /veh CAPN14 (11732068_a_at) / RFU TMCC2 (11721928_a_at) / Fold change /veh TMCC2 (11721928_a_at) / RFU IRGQ (11745062_a_at) / Fold change /veh IRGQ (11745062_a_at) / RFU FAM174B (11720279_a_at) / Fold change /veh FAM174B (11720279_a_at) / RFU TMPRSS4 (11748680_a_at) / Fold change /veh TMPRSS4 (11748680_a_at) / RFU FAM212B (11763350_a_at) / Fold change /veh FAM212B (11763350_a_at) / RFU PLEKHG5 (11743358_a_at) / Fold change /veh PLEKHG5 (11743358_a_at) / RFU ZSCAN30 (11745921_a_at) / Fold change /veh ZSCAN30 (11745921_a_at) / RFU CMKLR1 (11741424_a_at) / Fold change /veh CMKLR1 (11741424_a_at) / RFU LOC101060620 /// MAPK8IP1 (11723275_at) / Fold change /veh LOC101060620 /// MAPK8IP1 (11723275_at) / RFU SPTSSB (11747773_x_at) / Fold change /veh SPTSSB (11747773_x_at) / RFU PRSS12 (11739890_at) / Fold change /veh PRSS12 (11739890_at) / RFU BIN1 (11741810_x_at) / Fold change /veh BIN1 (11741810_x_at) / RFU WNT11 (11732464_a_at) / Fold change /veh WNT11 (11732464_a_at) / RFU C10orf10 (11716521_a_at) / Fold change /veh C10orf10 (11716521_a_at) / RFU C5orf56 (11738089_at) / Fold change /veh C5orf56 (11738089_at) / RFU CYB561 (11721691_x_at) / Fold change /veh CYB561 (11721691_x_at) / RFU ANKRD19P (11752326_a_at) / Fold change /veh ANKRD19P (11752326_a_at) / RFU OR2T12 /// OR2T33 /// OR2T8 (11738714_s_at) / Fold change /veh OR2T12 /// OR2T33 /// OR2T8 (11738714_s_at) / RFU VCAN (11748164_a_at) / Fold change /veh VCAN (11748164_a_at) / RFU JSRP1 (11732532_at) / Fold change /veh JSRP1 (11732532_at) / RFU KRTAP10-11 (11738290_x_at) / Fold change /veh KRTAP10-11 (11738290_x_at) / RFU MYO3A (11730013_a_at) / Fold change /veh MYO3A (11730013_a_at) / RFU EBF3 (11725865_a_at) / Fold change /veh EBF3 (11725865_a_at) / RFU CAMK2N1 (11719241_x_at) / Fold change /veh CAMK2N1 (11719241_x_at) / RFU C5orf56 (11738088_a_at) / Fold change /veh C5orf56 (11738088_a_at) / RFU OLFML3 (11715873_a_at) / Fold change /veh OLFML3 (11715873_a_at) / RFU LOC100653217 /// NTM (11731650_a_at) / Fold change /veh LOC100653217 /// NTM (11731650_a_at) / RFU MAPK11 (11762145_a_at) / Fold change /veh MAPK11 (11762145_a_at) / RFU FIZ1 (11724087_x_at) / Fold change /veh FIZ1 (11724087_x_at) / RFU OASL (11726364_x_at) / Fold change /veh OASL (11726364_x_at) / RFU SOX15 (11748057_x_at) / Fold change /veh SOX15 (11748057_x_at) / RFU CD79A (11719716_a_at) / Fold change /veh CD79A (11719716_a_at) / RFU HIST1H1D (11736915_at) / Fold change /veh HIST1H1D (11736915_at) / RFU CASKIN2 (11723855_a_at) / Fold change /veh CASKIN2 (11723855_a_at) / RFU LOC730098 (11760151_x_at) / Fold change /veh LOC730098 (11760151_x_at) / RFU OR4N2 (11742367_at) / Fold change /veh OR4N2 (11742367_at) / RFU PRRT2 (11749266_a_at) / Fold change /veh PRRT2 (11749266_a_at) / RFU SNX32 (11753110_a_at) / Fold change /veh SNX32 (11753110_a_at) / RFU CDHR5 (11726645_a_at) / Fold change /veh CDHR5 (11726645_a_at) / RFU RCAN1 (11760418_a_at) / Fold change /veh RCAN1 (11760418_a_at) / RFU FAM167A (11723789_a_at) / Fold change /veh FAM167A (11723789_a_at) / RFU FAM26E (11764081_at) / Fold change /veh FAM26E (11764081_at) / RFU ISYNA1 (11749810_s_at) / Fold change /veh ISYNA1 (11749810_s_at) / RFU ACY1 (11761880_at) / Fold change /veh ACY1 (11761880_at) / RFU 11764098_at / Fold change /veh 11764098_at / RFU SAMD14 (11745864_x_at) / Fold change /veh SAMD14 (11745864_x_at) / RFU NPB (11741838_a_at) / Fold change /veh NPB (11741838_a_at) / RFU TMPRSS6 (11731388_a_at) / Fold change /veh TMPRSS6 (11731388_a_at) / RFU KRTAP10-2 (11738614_at) / Fold change /veh KRTAP10-2 (11738614_at) / RFU ARHGAP8 /// PRR5-ARHGAP8 (11727945_x_at) / Fold change /veh ARHGAP8 /// PRR5-ARHGAP8 (11727945_x_at) / RFU KRTAP5-7 /// NADSYN1 (11734609_at) / Fold change /veh KRTAP5-7 /// NADSYN1 (11734609_at) / RFU RASL12 (11751679_a_at) / Fold change /veh RASL12 (11751679_a_at) / RFU CDKN2B (11736163_a_at) / Fold change /veh CDKN2B (11736163_a_at) / RFU PRF1 (11729649_at) / Fold change /veh PRF1 (11729649_at) / RFU, ZNF638 /// ZNF638-IT1 / Fold change vs veh, ZNF638 /// ZNF638-IT1 / RFU, PANK3 / Fold change vs veh, PANK3 / RFU, SH3YL1 / Fold change vs veh, SH3YL1 / RFU, ZEB2 / Fold change vs veh, ZEB2 / RFU, NRIP1 / Fold change vs veh, NRIP1 / RFU, PTTG1IP / Fold change vs veh, PTTG1IP / RFU, CAPN2 / Fold change vs veh, CAPN2 / RFU, MED14 / Fold change vs veh, MED14 / RFU, SNORA58 / Fold change vs veh, SNORA58 / RFU, C1orf63 / Fold change vs veh, C1orf63 / RFU, LRRFIP1 / Fold change vs veh, LRRFIP1 / RFU, NDUFAF7 / Fold change vs veh, NDUFAF7 / RFU, SLC12A2 / Fold change vs veh, SLC12A2 / RFU, IBTK / Fold change vs veh, IBTK / RFU, ESF1 / Fold change vs veh, ESF1 / Fold change vs veh, TMEM50B / RFU, TAOK1 / Fold change vs veh, TAOK1 / RFU, ACBD3 / Fold change vs veh, ACBD3 / RFU, TMA16 / Fold change vs veh, TMA16 / RFU, RWDD3 / Fold change vs veh, RWDD3 / RFU, BCAT1 / Fold change vs veh, BCAT1 / RFU, EDEM3 / Fold change vs veh, EDEM3 / RFU, TMEM33 / Fold change vs veh, TMEM33 / RFU, WDR75 / Fold change vs veh, WDR75 / RFU, AHCTF1 / Fold change vs veh, AHCTF1 / RFU, TFRC / Fold change vs veh, TFRC / RFU, ZDHHC17 / Fold change vs veh, ZDHHC17 / RFU, NOM1 / Fold change vs veh, NOM1 / RFU, ARL8B / Fold change vs veh, ARL8B / RFU, ZBTB11 / Fold change vs veh, ZBTB11 / RFU, TAMM41 / Fold change vs veh, TAMM41 / RFU, KIAA1704 /// LOC100996395 / Fold change vs veh, KIAA1704 /// LOC100996395 / RFU, ING1 / Fold change vs veh, ING1 / RFU, TRMT61B / Fold change vs veh, TRMT61B / RFU, FUBP3 / Fold change vs veh, FUBP3 / RFU, TP53 / Fold change vs veh, TP53 / RFU, TNKS2 / Fold change vs veh, TNKS2 / RFU, ZFP14 / Fold change vs veh, ZFP14 / RFU, ACTR2 / Fold change vs veh, ACTR2 / RFU, PPP3R1 / Fold change vs veh, PPP3R1 / RFU, PIK3R1 / Fold change vs veh, PIK3R1 / RFU, HNRNPA1 / Fold change vs veh, HNRNPA1 / RFU, RNF170 / Fold change vs veh, RNF170 / RFU, ZNF28 / Fold change vs veh, ZNF28 / RFU, RNGTT / Fold change vs veh, RNGTT / RFU, OGT / Fold change vs veh, OGT / RFU, BRD1 / Fold change vs veh, BRD1 / RFU, MARS / Fold change vs veh, MARS / RFU, ZNF655 / Fold change vs veh, ZNF655 / RFU, FAHD1 / Fold change vs veh, FAHD1 / RFU, BDP1 / Fold change vs veh, BDP1 / RFU, LRRCC1 / Fold change vs veh, LRRCC1 / RFU, ARID1A / Fold change vs veh, ARID1A / RFU, ZNF146 / Fold change vs veh, ZNF146 / RFU, ZNF330 / Fold change vs veh, ZNF330 / RFU, GPN3 / Fold change vs veh, GPN3 / RFU, C9orf123 / Fold change vs veh, C9orf123 / RFU, N4BP2L2 / Fold change vs veh, N4BP2L2 / RFU, ARFIP1 / Fold change vs veh, ARFIP1 / RFU, FAM179B / Fold change vs veh, FAM179B / RFU, BCL10 / Fold change vs veh, BCL10 / RFU, UHRF1BP1L / Fold change vs veh, UHRF1BP1L / RFU, BET1 / Fold change vs veh, BET1 / RFU, CNOT2 / Fold change vs veh, CNOT2 / RFU, ZNF268 / Fold change vs veh, ZNF268 / Fold change vs veh, ZNF507 / RFU, DGCR2 / Fold change vs veh, DGCR2 / RFU, WDSUB1 / Fold change vs veh, WDSUB1 / Fold change vs veh, HSP90B1 /// MIR3652 / RFU, ADSS / Fold change vs veh, ADSS / RFU, GK / Fold change vs veh, GK / RFU, ZNF148 / Fold change vs veh, ZNF148 / RFU, TAF9 / Fold change vs veh, TAF9 / RFU, SLC1A5 / Fold change vs veh, SLC1A5 / RFU, SLMO2 / Fold change vs veh, SLMO2 / RFU, ABCC4 / Fold change vs veh, ABCC4 / RFU, LOC101060439 /// RAP1B / Fold change vs veh, LOC101060439 /// RAP1B / RFU, RFX7 / Fold change vs veh, RFX7 / RFU, GTPBP10 / Fold change vs veh, GTPBP10 / RFU, CNEP1R1 / Fold change vs veh, CNEP1R1 / RFU, BIVM-ERCC5 /// ERCC5 / Fold change vs veh, BIVM-ERCC5 /// ERCC5 / RFU, ILF3 / Fold change vs veh, ILF3 / RFU 11762660_at / Fold change /veh 11762660_at / RFU VCAN (11757783_s_at) / Fold change /veh VCAN (11757783_s_at) / RFU DDX43 (11728927_at) / Fold change /veh DDX43 (11728927_at) / RFU KRT8 (11758188_x_at) / Fold change /veh KRT8 (11758188_x_at) / RFU NKD1 (11759106_at) / Fold change /veh NKD1 (11759106_at) / RFU SRD5A1 (11742802_a_at) / Fold change /veh SRD5A1 (11742802_a_at) / RFU TPSAB1 /// TPSB2 (11721975_s_at) / Fold change /veh TPSAB1 /// TPSB2 (11721975_s_at) / RFU GSTM3 (11746129_a_at) / Fold change /veh GSTM3 (11746129_a_at) / RFU IL23R (11737362_x_at) / Fold change /veh IL23R (11737362_x_at) / RFU TMEM51 (11727254_a_at) / Fold change /veh TMEM51 (11727254_a_at) / RFU PIWIL2 (11732686_x_at) / Fold change /veh PIWIL2 (11732686_x_at) / RFU ORM1 (11744905_x_at) / Fold change /veh ORM1 (11744905_x_at) / RFU CCDC152 (11743942_at) / Fold change /veh CCDC152 (11743942_at) / RFU ECM1 (11717891_a_at) / Fold change /veh ECM1 (11717891_a_at) / RFU IL23R (11748794_a_at) / Fold change /veh IL23R (11748794_a_at) / RFU TNFAIP8L3 (11732012_x_at) / Fold change /veh TNFAIP8L3 (11732012_x_at) / RFU MBOAT4 (11741988_at) / Fold change /veh MBOAT4 (11741988_at) / RFU 11764193_at / Fold change /veh 11764193_at / RFU TMEM53 (11763286_at) / Fold change /veh TMEM53 (11763286_at) / RFU MAGEB2 (11727129_at) / Fold change /veh MAGEB2 (11727129_at) / RFU TMEM200A (11744735_a_at) / Fold change /veh TMEM200A (11744735_a_at) / RFU CCDC152 (11751479_a_at) / Fold change /veh CCDC152 (11751479_a_at) / RFU FAM211A (11726209_a_at) / Fold change /veh FAM211A (11726209_a_at) / RFU RGS16 (11746705_a_at) / Fold change /veh RGS16 (11746705_a_at) / RFU VCAN (11755009_s_at) / Fold change /veh VCAN (11755009_s_at) / RFU RHOB (11743442_s_at) / Fold change /veh RHOB (11743442_s_at) / RFU RGS16 (11720943_a_at) / Fold change /veh RGS16 (11720943_a_at) / RFU RGS16 (11720944_at) / Fold change /veh RGS16 (11720944_at) / RFU, VPS4B / Fold change vs veh, VPS4B / RFU, CREB1 / Fold change vs veh, CREB1 / RFU, DNAJC13 / Fold change vs veh, DNAJC13 / RFU, GNAQ / Fold change vs veh, GNAQ / RFU, CDK5R1 / Fold change vs veh, CDK5R1 / RFU, ZRANB3 / Fold change vs veh, ZRANB3 / RFU, CUL4A / Fold change vs veh, CUL4A / RFU, CCNY / Fold change vs veh, CCNY / RFU, UFL1 / Fold change vs veh, UFL1 / RFU, COG3 / Fold change vs veh, COG3 / RFU, DIAPH2 / Fold change vs veh, DIAPH2 / RFU, SKA2 / Fold change vs veh, SKA2 / RFU, AFF3 / Fold change vs veh, AFF3 / RFU, LMF1 / Fold change vs veh, LMF1 / RFU, IPO11 / Fold change vs veh, IPO11 / RFU, DFFB / Fold change vs veh, DFFB / RFU, FOXP1 / Fold change vs veh, FOXP1 / RFU, CARD8 / Fold change vs veh, CARD8 / RFU, STRN3 / Fold change vs veh, STRN3 / RFU, ADK / Fold change vs veh, ADK / RFU, RASSF2 / Fold change vs veh, RASSF2 / RFU, WIPF1 / Fold change vs veh, WIPF1 / RFU, LARP1B / Fold change vs veh, LARP1B / RFU, RASA1 / Fold change vs veh, RASA1 / RFU, RB1 / Fold change vs veh, RB1 / RFU, PPFIA1 / Fold change vs veh, PPFIA1 / RFU, MAT2A / Fold change vs veh, MAT2A / RFU, CCT5 / Fold change vs veh, CCT5 / RFU, WDR92 / Fold change vs veh, WDR92 / RFU, CUX1 / Fold change vs veh, CUX1 / RFU, TTC7A / Fold change vs veh, TTC7A / RFU, TMEM135 / Fold change vs veh, TMEM135 / RFU, DEPTOR / Fold change vs veh, DEPTOR / RFU, CPM / Fold change vs veh, CPM / RFU, DNAJB6 / Fold change vs veh, DNAJB6 / RFU, CACNA2D3 / Fold change vs veh, CACNA2D3 / RFU, DTX4 / Fold change vs veh, DTX4 / RFU, TFCP2 / Fold change vs veh, TFCP2 / RFU, GMCL1 /// GMCL1P1 / Fold change vs veh, GMCL1 /// GMCL1P1 / RFU, AEBP2 / Fold change vs veh, AEBP2 / RFU, SNHG1 /// SNORD22 /// SNORD25 /// SNORD26 /// SNORD27 /// SNORD28 /// SNORD29 /// SNORD31 / Fold change vs veh, SNHG1 /// SNORD22 /// SNORD25 /// SNORD26 /// SNORD27 /// SNORD28 /// SNORD29 /// SNORD31 / Fold change (Aza/veh), C12orf56 (ProbeSet 11735607_a_at) / Fold change (ACY-1035/veh), C12orf56 (ProbeSet 11735607_a_at) / Fold change (Aza/veh), FGFR1OP (ProbeSet 11751329_s_at) / Fold change (ACY-1035/veh), FGFR1OP (ProbeSet 11751329_s_at) / Fold change (Aza/veh), VPS36 (ProbeSet 11739960_a_at) / Fold change (ACY-1035/veh), VPS36 (ProbeSet 11739960_a_at) / RFU SYPL1 (11715823_x_at) / Fold change /veh SYPL1 (11715823_x_at) / RFU IGFBP7 (11715501_s_at) / Fold change /veh IGFBP7 (11715501_s_at) / RFU REEP3 (11722064_at) / Fold change /veh REEP3 (11722064_at) / RFU IGLL1 (11728026_x_at) / Fold change /veh IGLL1 (11728026_x_at): dose or concentration left out as unconfirmed
Details: ProbeSet 11747889_x_at; LIST B

Nc1ncn([C@@H]2O[C@H](CO)[C@@H](O)[C@H]2O)c(=O)n1 [azacitidine]
RFU, SH3YL1: 57.53 RFU
